The values that follow come from article PMC8550792, “Evolution of kinase polypharmacology across HSP90 drug discovery” (Cell Chemical Biology, 2021).

What all share (experiment): biochemical
Holding throughout (assay type): biochemical

Assay [1] addresses T1, 382 unique human kinases (Homo sapiens, UniProt P06213).
T1 construct: purchased Reaction Biology (HotSpot contract assay)
Conditions: kinase IR, compound 10 uM; for remaining activity at 10 µM: read-out: % Enzyme Activity (relative to DMSO controls).

Assay [2] deals with T2, 382 unique human kinases (Homo sapiens, UniProt P00533, L858R).
T2 construct: purchased Reaction Biology (HotSpot contract assay)
The conditions noted are these: kinase EGFR (L858R), compound 10 uM; for remaining activity at 10 µM: read-out: % Enzyme Activity (relative to DMSO controls).

For assay [3], the target named is T3, 382 unique human kinases (Homo sapiens, UniProt P53779).
T3 construct: purchased Reaction Biology (HotSpot contract assay)
Conditions: JNK3, compound at 10 uM, duplicate values; for remaining activity at 10 µM: read-out: % Enzyme Activity (relative to DMSO controls).

The target in assay [4] is T4, 382 unique human kinases (Homo sapiens, UniProt Q07002).
T4 construct: purchased Reaction Biology (HotSpot contract assay)
Conditions: CDK18/cyclin Y (PCTK3), compound at 10 uM, duplicate values; for remaining activity at 10 µM: read-out: % Enzyme Activity (relative to DMSO controls).

Assay [5] has as its target T5, 382 unique human kinases (Homo sapiens, UniProt Q16566).
T5 construct: purchased Reaction Biology (HotSpot contract assay)
T5 sequence (Q16566 1-473): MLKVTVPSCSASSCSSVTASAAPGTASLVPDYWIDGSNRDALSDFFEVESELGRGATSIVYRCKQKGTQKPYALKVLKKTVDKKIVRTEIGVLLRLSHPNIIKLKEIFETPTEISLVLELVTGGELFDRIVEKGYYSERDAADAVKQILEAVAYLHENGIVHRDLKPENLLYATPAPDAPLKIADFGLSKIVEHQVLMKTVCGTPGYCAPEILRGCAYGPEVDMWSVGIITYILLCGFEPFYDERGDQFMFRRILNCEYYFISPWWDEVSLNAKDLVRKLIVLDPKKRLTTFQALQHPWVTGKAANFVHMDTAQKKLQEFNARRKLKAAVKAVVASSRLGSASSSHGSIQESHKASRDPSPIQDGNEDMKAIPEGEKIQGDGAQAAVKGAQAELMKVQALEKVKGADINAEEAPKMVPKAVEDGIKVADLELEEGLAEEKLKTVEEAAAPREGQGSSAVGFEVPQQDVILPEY
The conditions noted are these: kinase CAMK4, compound 10 uM; for remaining activity at 10 µM: read-out: % Enzyme Activity (relative to DMSO controls).

The target of assay [6] is T6, 382 unique human kinases (Homo sapiens, UniProt P24723).
T6 construct: purchased Reaction Biology (HotSpot contract assay)
The conditions noted are these: PKCeta, 10 uM; for remaining activity at 10 µM: read-out: % Enzyme Activity (relative to DMSO controls).

The target of assay [7] is T7, 382 unique human kinases (Homo sapiens, UniProt Q04759).
T7 construct: purchased Reaction Biology (HotSpot contract assay)
Conditions: PKCtheta, compound at 10 uM, duplicate values; for remaining activity at 10 µM: read-out: % Enzyme Activity (relative to DMSO controls).

Assay [8] has as its target T8, 382 unique human kinases (Homo sapiens, UniProt P54646).
T8 construct: purchased Reaction Biology (HotSpot contract assay)
Conditions: for remaining activity at 10 µM: read-out: % Enzyme Activity (relative to DMSO controls).

Assay [9] has as its target T9, 382 unique human kinases (Homo sapiens, UniProt Q9UK32).
T9 construct: purchased Reaction Biology (HotSpot contract assay)
The conditions noted are these: RSK4, [ATP] 30 µM, compound 10 uM; for remaining activity at 10 µM: read-out: % Enzyme Activity (relative to DMSO controls).

In assay [10] the target is T10, 382 unique human kinases (Homo sapiens, UniProt P34947).
T10 construct: purchased Reaction Biology (HotSpot contract assay)
Conditions: GRK5, 10 uM; for remaining activity at 10 µM: read-out: % Enzyme Activity (relative to DMSO controls).

In assay [11] the target is T11, 382 unique human kinases (Homo sapiens, UniProt P46734).
T11 construct: purchased Reaction Biology (HotSpot contract assay)
T11 sequence (P46734 1-347): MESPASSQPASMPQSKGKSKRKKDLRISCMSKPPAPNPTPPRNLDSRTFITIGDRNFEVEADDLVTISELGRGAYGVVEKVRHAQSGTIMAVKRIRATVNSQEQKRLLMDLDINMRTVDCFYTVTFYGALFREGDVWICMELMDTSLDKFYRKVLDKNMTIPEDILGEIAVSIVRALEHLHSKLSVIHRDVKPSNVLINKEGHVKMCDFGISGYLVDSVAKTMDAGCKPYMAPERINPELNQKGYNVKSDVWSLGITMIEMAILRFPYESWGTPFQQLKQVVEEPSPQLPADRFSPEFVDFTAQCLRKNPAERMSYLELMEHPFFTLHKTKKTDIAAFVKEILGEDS
Conditions: MEK3, 10 uM; for remaining activity at 10 µM: read-out: % Enzyme Activity (relative to DMSO controls).

Assay [12] deals with T12, 382 unique human kinases (Homo sapiens, UniProt P07948).
T12 construct: purchased Reaction Biology (HotSpot contract assay)
Conditions: LYN, [ATP] 15 µM, compound 10 uM; for remaining activity at 10 µM: read-out: % Enzyme Activity (relative to DMSO controls).

Assay [13] has as its target T13, 382 unique human kinases (Homo sapiens, UniProt O94806).
T13 construct: purchased Reaction Biology (HotSpot contract assay)
T13 sequence (O94806 1-890): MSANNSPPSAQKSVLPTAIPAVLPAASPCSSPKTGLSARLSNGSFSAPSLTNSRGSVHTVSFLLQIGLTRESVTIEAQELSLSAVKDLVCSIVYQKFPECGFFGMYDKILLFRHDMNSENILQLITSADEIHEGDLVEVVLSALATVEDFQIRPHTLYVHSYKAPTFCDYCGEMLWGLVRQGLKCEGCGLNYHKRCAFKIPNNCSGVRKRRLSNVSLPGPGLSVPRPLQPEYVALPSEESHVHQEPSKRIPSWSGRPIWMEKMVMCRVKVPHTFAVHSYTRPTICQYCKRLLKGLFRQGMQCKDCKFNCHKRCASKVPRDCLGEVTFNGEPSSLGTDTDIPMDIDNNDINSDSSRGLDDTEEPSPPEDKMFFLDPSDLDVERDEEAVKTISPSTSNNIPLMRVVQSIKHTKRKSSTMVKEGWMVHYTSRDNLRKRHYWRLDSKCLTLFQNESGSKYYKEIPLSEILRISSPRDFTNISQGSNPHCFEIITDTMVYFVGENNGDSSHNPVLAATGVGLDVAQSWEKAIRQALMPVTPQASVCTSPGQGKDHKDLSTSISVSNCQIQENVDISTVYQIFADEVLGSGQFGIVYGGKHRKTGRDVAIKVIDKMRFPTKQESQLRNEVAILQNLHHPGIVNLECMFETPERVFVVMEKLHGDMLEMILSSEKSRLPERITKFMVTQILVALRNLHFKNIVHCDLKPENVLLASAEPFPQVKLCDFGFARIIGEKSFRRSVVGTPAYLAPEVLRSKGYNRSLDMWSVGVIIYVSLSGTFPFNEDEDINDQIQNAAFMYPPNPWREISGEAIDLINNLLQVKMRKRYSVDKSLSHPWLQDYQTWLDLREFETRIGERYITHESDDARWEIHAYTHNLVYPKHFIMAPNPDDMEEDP
Conditions: PKCnu/PRKD3, [ATP] 30 µM, compound 10 uM; for remaining activity at 10 µM: read-out: % Enzyme Activity (relative to DMSO controls).

In assay [14] the target is T14, 382 unique human kinases (Homo sapiens, UniProt P07333).
T14 construct: purchased Reaction Biology (HotSpot contract assay)
Conditions: FMS, [ATP] 100 µM, compound 10 uM; for remaining activity at 10 µM: read-out: % Enzyme Activity (relative to DMSO controls).

Where [15] appears, read: kinase AMPK(A2/B1/G1), compound 10 uM.
[16] abbreviates: kinase AMPK(A2/B2/G1), compound 10 uM.
Setting [17] is: kinase AMPK(A2/B2/G2), compound 10 uM.

Read-outs that look alike come from different tables or passages of the source.

T10 sequence (P34947 whole entry): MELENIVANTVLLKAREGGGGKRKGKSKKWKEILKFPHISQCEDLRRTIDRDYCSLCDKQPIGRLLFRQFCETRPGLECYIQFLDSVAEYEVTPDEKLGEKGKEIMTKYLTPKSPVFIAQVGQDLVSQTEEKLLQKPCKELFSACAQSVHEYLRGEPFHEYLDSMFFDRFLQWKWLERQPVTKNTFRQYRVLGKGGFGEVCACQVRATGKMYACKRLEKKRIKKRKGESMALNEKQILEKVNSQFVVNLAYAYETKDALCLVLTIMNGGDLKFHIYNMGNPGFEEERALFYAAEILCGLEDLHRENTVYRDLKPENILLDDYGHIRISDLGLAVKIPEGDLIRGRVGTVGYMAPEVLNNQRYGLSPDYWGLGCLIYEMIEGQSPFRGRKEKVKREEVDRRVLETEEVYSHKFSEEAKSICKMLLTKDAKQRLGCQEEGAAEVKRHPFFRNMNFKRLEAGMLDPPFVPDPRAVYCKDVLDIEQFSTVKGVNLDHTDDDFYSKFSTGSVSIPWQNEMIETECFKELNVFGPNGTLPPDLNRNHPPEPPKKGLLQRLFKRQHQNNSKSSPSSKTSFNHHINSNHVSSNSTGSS
T1 sequence (P06213 28-1382): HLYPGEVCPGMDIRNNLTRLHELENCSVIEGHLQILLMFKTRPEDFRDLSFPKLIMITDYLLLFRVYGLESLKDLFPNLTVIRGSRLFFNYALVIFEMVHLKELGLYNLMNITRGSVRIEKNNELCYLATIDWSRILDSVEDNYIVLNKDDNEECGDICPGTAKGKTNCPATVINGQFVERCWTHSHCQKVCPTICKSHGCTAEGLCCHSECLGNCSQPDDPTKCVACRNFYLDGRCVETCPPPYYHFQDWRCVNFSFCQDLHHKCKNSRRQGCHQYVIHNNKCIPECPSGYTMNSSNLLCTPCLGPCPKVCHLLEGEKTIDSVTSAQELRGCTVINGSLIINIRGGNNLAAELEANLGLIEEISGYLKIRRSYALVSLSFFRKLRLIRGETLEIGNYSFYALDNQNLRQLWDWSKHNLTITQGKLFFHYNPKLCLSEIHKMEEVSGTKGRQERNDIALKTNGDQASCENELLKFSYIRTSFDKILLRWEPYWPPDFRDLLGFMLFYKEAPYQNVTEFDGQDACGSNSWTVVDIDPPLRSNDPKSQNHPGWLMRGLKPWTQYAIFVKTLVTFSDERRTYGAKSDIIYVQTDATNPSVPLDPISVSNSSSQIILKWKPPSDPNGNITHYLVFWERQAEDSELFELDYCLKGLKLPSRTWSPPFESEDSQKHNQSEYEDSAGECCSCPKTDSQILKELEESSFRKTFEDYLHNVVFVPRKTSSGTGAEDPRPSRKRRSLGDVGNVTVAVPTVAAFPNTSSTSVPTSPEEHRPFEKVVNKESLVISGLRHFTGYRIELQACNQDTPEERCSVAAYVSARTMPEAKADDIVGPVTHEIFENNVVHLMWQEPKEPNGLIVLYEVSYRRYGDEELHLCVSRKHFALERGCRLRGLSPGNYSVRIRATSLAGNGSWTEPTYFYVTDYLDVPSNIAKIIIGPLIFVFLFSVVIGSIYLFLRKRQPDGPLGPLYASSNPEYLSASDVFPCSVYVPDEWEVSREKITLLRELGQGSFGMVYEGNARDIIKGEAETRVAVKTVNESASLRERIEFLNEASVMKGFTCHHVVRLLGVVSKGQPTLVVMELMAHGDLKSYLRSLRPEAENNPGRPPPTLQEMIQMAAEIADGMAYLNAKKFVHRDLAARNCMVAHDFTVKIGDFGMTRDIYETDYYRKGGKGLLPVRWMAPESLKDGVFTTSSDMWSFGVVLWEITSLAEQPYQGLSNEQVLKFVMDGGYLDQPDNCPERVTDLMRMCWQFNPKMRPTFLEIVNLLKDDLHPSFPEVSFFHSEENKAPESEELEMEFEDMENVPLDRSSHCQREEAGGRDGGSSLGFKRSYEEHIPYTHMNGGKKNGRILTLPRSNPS
T6 sequence (P24723 whole entry): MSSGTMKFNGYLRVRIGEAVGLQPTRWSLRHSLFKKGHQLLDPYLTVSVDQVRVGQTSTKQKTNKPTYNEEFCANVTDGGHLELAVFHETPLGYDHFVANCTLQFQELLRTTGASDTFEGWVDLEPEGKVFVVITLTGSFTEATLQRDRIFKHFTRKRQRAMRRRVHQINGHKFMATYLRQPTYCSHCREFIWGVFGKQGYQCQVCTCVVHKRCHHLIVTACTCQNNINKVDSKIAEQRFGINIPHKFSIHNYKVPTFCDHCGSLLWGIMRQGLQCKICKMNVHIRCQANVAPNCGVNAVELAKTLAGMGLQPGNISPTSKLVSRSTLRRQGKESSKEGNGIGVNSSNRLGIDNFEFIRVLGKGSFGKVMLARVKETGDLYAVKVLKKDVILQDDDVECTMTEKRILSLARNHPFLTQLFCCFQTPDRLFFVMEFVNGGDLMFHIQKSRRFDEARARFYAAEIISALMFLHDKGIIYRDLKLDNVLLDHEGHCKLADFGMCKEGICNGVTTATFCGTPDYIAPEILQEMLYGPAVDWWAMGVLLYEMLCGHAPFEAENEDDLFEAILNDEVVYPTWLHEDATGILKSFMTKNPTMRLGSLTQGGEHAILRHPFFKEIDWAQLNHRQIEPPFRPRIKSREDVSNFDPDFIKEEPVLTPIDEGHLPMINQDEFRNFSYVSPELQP
T8 sequence (P54646 whole entry): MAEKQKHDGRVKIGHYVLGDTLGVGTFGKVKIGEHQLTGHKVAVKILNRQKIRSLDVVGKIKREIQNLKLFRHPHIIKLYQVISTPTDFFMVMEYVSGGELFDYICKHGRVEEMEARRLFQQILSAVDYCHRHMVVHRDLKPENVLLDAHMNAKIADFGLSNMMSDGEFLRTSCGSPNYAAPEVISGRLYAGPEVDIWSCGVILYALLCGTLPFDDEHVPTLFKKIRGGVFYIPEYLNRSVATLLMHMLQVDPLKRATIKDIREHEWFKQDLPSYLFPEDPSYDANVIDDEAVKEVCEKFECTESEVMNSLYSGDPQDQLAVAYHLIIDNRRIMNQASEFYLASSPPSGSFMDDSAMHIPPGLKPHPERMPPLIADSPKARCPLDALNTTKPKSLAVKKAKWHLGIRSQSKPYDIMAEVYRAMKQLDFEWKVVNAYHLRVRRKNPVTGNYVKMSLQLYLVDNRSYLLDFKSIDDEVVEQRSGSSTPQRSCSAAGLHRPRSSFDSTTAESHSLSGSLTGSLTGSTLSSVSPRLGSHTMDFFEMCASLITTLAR
T14 sequence (P07333 20-972): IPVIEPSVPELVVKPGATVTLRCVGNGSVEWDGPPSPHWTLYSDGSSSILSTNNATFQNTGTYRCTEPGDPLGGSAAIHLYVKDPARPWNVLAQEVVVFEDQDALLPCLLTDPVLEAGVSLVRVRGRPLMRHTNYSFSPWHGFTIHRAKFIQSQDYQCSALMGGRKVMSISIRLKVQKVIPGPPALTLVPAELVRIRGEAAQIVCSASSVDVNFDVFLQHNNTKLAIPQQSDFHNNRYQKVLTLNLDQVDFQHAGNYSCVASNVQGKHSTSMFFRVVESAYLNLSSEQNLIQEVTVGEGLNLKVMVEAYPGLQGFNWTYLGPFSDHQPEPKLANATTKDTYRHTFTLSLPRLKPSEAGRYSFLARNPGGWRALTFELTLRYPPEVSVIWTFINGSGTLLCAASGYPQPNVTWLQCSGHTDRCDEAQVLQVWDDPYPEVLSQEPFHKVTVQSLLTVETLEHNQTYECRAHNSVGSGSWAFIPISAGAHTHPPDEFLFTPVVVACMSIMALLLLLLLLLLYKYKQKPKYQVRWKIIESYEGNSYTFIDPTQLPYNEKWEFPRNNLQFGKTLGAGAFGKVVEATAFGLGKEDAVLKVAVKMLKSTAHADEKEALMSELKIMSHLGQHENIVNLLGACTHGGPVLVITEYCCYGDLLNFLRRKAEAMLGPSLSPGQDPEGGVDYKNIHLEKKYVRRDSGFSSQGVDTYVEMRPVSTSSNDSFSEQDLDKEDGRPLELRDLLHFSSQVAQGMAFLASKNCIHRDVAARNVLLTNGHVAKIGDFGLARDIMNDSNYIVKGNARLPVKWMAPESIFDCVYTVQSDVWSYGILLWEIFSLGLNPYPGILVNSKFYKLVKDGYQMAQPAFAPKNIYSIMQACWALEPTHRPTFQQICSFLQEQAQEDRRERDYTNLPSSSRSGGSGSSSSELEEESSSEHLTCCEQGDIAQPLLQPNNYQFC
T4 sequence (Q07002 whole entry): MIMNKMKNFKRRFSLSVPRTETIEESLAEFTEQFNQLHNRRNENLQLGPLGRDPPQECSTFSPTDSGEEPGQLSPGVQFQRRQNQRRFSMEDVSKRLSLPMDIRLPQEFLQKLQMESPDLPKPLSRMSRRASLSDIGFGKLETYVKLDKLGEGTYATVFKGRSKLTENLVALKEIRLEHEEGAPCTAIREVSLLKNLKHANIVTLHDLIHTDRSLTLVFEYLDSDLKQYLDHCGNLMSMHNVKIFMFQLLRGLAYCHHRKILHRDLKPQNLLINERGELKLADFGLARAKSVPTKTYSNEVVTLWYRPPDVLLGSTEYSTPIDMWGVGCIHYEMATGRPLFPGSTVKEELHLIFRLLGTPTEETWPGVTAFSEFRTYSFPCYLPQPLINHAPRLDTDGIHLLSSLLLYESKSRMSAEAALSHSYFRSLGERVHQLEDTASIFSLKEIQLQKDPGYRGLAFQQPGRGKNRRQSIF
T3 sequence (P53779 whole entry): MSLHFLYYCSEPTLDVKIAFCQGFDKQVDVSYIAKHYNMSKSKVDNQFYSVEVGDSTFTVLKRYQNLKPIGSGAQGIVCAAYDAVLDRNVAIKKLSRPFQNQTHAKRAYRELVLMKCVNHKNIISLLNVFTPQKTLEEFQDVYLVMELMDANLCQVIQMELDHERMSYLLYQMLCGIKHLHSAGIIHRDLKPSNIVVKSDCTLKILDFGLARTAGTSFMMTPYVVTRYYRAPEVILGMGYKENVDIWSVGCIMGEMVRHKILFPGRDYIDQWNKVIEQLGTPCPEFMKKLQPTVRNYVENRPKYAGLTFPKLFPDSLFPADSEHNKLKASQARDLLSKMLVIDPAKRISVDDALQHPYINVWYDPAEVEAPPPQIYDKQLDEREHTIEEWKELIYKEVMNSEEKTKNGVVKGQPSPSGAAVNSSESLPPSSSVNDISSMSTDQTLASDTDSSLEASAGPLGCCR

For the compound `CC(C)c1cc(-c2n[nH]c(=O)n2-c2ccc3c(ccn3C)c2)c(O)cc1O` [Ganetespib (STA9090)], the remaining activity at 10 µM is 87% in [1]; 88.8% in assay [2]; 118% in assay [3]; 107% in assay [4]; 91% in assay [5]; 75.8% in [6]. The remaining activity at 10 µM turned out to be 148% in [7]; 65.8% in [8] (AMPK(A2/B2/G3), 10 uM); 80.4% in assay [8] (setting [15]); 82.1% in assay [8] (setting [16]); 84.6% in [8] (setting [17]).

On to `CC(C)c1cc(-c2n[nH]c(=O)n2-c2ccc3c(ccn3C)c2)c(O)cc1O` [Ganetespib], for which the remaining activity at 10 µM is 27.5% in assay [9]; 96% in [10]; 103% in [11]; 21.7% in [12]; 54.7% in assay [13]; 23.5% in assay [14].

Turning to `CCNC(=O)c1noc(-c2cc(C(C)C)c(O)cc2O)c1-c1ccc(CN2CCOCC2)cc1` [Luminespib (AUY-922)], the “% Enzyme Activity (relative to DMSO controls)” value in assay [1] was found to be 96.77%; in assay [2], 96.48%; in assay [3], 106.79%; in [4] it was 109.58%; in [5], 90.30%; in assay [6] it was 105.31%. The “% Enzyme Activity (relative to DMSO controls)” value was 101.70% in assay [7]; 103.09% in assay [8] (AMPK(A2/B2/G3), 10 uM); 102.86% in assay [8] (setting [15]); 94.15% in assay [8] (setting [16]); 96.15% in assay [8] (setting [17]). Besides, the remaining activity at 10 µM in [1] was 96.8%; in assay [2] it was 97%; in assay [3], 107%; in [4], 111%; in assay [5], 93.7%; in assay [6] it was 106%. In addition, the remaining activity at 10 µM in [7] was determined as 102%; in assay [8] (AMPK(A2/B2/G3), 10 uM), 104%; in assay [8] (setting [15]), 103%; in [8] (setting [16]), 94.2%; in [8] (setting [17]), 97.4%.

As to `CCNC(=O)c1noc(-c2cc(C(C)C)c(O)cc2O)c1-c1ccc(CN2CCOCC2)cc1` [Luminespib], the “% Enzyme Activity (relative to DMSO controls)” value is listed as 94.35% in [9]; 101.05% in [10]; 95.40% in [11]; 38.08% in assay [12]; 116.94% in [13]; 26.15% in assay [14]. For the same compound, the remaining activity at 10 µM in assay [9] is 96%; in assay [10] it was 102%; in assay [11], 96.8%; in assay [12], 39.2%; in assay [13], 120%; in assay [14] it was 26.4%.
